Like-named read-outs stand apart in the source and are kept apart here. Bounds are passed on as bounds.

What all share (type): cell-based
In assay [1] the test system is Human lung cancer cell line NCI-H1781. In words: Cell proliferation inhibition test upon SLFN11 knockdown, NCI-H1781. Conditions: for Cell proliferation inhibitory effect upon SLFN11 knockdown: NCI-H1781 cell lines, SLFN11 siRNA vs Non-targeting Control; for Fold change (SLFN11/Non-targeting Control): ratio of IC50. The method, then:
(§1) Human lung cancer cell line NCI-H1781 was obtained from ATCC and used for evaluation. NCI-H1781 cells suspended at 2×10^3 cells/mL in RPMI-1640 medium containing 10% bovine fetal serum were seeded in a 10 cm cell culture dish at 10 mL/dish. Twenty-four hours after seeding, 100 pmol of ON-TARGETplus SLFN11 siRNA (Dharmacon Inc.) or ON-TARGETplus Non-targeting Control Pool (Dharmacon Inc.) and 30 μL of Lipofectamine™ RNAiMAX Transfection Reagent (Thermo Fisher Scientific Inc.) were suspended in 1 mL of Opti-MEM medium, and the entire amount of the suspension was added to the medium. After 72 hours, the medium was removed and the dish was washed with PBS, then the cells were dissociated and recovered from the dish using 1 mL of TrypLE™ Express. The recovered cells were suspended at 5×10^4 cells/mL in RPMI-1640 medium containing 10% bovine fetal serum, and seeded in a 96-well cell culture plate at 100 μL/well. Twenty-four hours after seeding, the medium was replaced with a medium containing 100 nM, 33 nM, 11 nM, 3.7 nM, 1.2 nM, 0.41 nM, 0.13 nM, 0.045 nM, or 0 nM of compound (1) or antibody-drug conjugate (1) at 100 μL/well. The molar concentration of antibody-drug conjugate (1) was calculated by setting the average molecular weight to 150,000. Cells were all cultured at 37° C. under 5% CO2. After 72 hours from the medium replacement, ATPlite 1 step detection system (PerkinElmer Inc.) was added at 100 μL/well. The wells were incubated at room temperature for 10 minutes, then the luminescence intensity of each well was measured.
(§2) The cell growth inhibition rate (%) at each condition was calculated using the following calculation formula: Cell growth inhibition rate (%)=100×(1−T/C) • T: Average luminescence intensity of each well to which specimen was added • C: Average luminescence intensity of each well to which 0 nM specimen was added
(§3) The 50% inhibitory concentration at each condition was calculated by fitting to the following calculation formula: Cell viability (%)=(Emax−Emin)×Specimen concentration^γ/((Emax−50)/(50−Emin)×IC50^γ+Specimen concentration^γ)+Emin • Emax: maximum cell growth inhibition rate (%) • Emin: minimum cell growth inhibition rate (%) • IC50: 50% inhibitory concentration • γ: Hill coefficient
(§4) The fitting to the calculation formula was performed using SAS Systems Release 9.2 (SAS Institute Inc.).

Assay [2] concerns Human pharyngeal cancer cell line FaDu. In words: Cell proliferation inhibition test upon SLFN11 knockdown, FaDu. Conditions: for Cell proliferation inhibitory effect upon SLFN11 knockdown: FaDu cell lines, SLFN11 siRNA vs Non-targeting Control; for Fold change (SLFN11/Non-targeting Control): ratio of IC50. The procedure:
Human pharyngeal cancer cell line FaDu was obtained from ATCC and used for evaluation. FaDu cells suspended at 2×10^3 cells/mL in a MEM medium containing a non-essential amino acid solution, a pyruvic acid solution and 10% bovine fetal serum were seeded in a 10 cm cell culture dish at 10 mL/dish. Twenty-four hours after seeding, 100 pmol of ON-TARGETplus SLFN11 siRNA (Dharmacon Inc.) or ON-TARGETplus Non-targeting Control Pool (Dharmacon Inc.) and 30 μL of Lipofectamine™ RNAiMAX Transfection Reagent (Thermo Fisher Scientific Inc.) were suspended in 1 mL of Opti-MEM medium, and the entire amount of the suspension was added to the medium. After 72 hours, the medium was removed and the dish was washed with PBS, then the cells were dissociated and recovered from the dish using 1 mL of TrypLE™ Express. The recovered cells were suspended at 5×10^4 cells/mL in a MEM medium containing a non-essential amino acid solution, a pyruvic acid solution and 10% bovine fetal serum, and were seeded in a 96-well cell culture plate at 100 μL/well. Twenty-four hours after seeding, the medium was replaced with a medium containing 100 nM, 33 nM, 11 nM, 3.7 nM, 1.2 nM, 0.41 nM, 0.13 nM, 0.045 nM, or 0 nM of compound (1) or antibody-drug conjugate (1) at 100 μL/well. The molar concentration of antibody-drug conjugate (1) was calculated by setting the average molecular weight to 150,000. Cells were all cultured at 37° C. under 5% CO2. After 72 hours from the medium replacement, ATPlite 1 step detection system (PerkinElmer Inc.) was added at 100 μL/well. The wells were incubated at room temperature for 10 minutes, then the luminescence intensity of each well was measured.
The cell growth inhibition rate(%) at each condition was calculated using the following calculation formula: Cell growth inhibition rate (%)=100×(1−T/C) • T: Average luminescence intensity of each well to which specimen was added • C: Average luminescence intensity of each well to which 0 nM specimen was added
as §3, §4

Assay [3] concerns Human breast cancer cell line MDA-MB-468. The assay is described as follows: Cell proliferation inhibition test upon SLFN11 knockdown, MDA-MB-468. The method, then: as §1, with “breast” for “lung”, “MDA-MB-468” for “NCI-H1781”, “[…]” for “pmol”
as §2, §3, §4

Consider `CC[C@@]1(O)C(=O)OCc2c1cc1n(c2=O)Cc2c-1nc1cc(F)c(C)c3c1c2[C@@H](NC(=O)CO)CC3` [Compound (1)], for which the IC50 (as a rule, the midpoint of a concentration-inhibition curve) in assay [1] (Homo sapiens, NCI-H1781, 72 h, read-out: IC50 (nM) Non-targeting Control Pool) worked out at 3.3 nM; in assay [1] (Homo sapiens, NCI-H1781, 72 h, read-out: IC50 (nM) SLFN11 siRNA), 15 nM; in assay [2] (Homo sapiens, FaDu, 72 h, read-out: IC50 (nM) Non-targeting Control Pool), 3.6 nM; in assay [2] (Homo sapiens, FaDu, 72 h, read-out: IC50 (nM) SLFN11 siRNA), 30.8 nM; in assay [3] (Homo sapiens, MDA-MB-468, 72 h, read-out: IC50 (nM) Non-targeting Control Pool), 4.8 nM; in assay [3] (Homo sapiens, MDA-MB-468, 72 h, read-out: IC50 (nM) SLFN11 siRNA), 27.5 nM. For the same molecule, the “Cell proliferation inhibitory effect upon SLFN11 knockdown” value was “attenuated by SLFN11 knockdown” in assay [1]; “attenuated by SLFN11 knockdown” in assay [2]; “attenuated by SLFN11 knockdown” in assay [3] (MDA-MB-468 cell lines, SLFN11 siRNA vs Non-targeting Control). The “Fold change (SLFN11/Non-targeting Control)” value is listed as 4.5 in assay [1] (NCI-H1781 cells); 8.6 in assay [2] (FaDu cells); 5.7 in assay [3] (MDA-MB-468 cells, ratio of IC50).

B1: antibody-drug conjugate (1): humanized anti-hTROP2 antibody (SEQ ID NO: 1 residues 20-470, SEQ ID NO: 2 residues 21-234) conjugated to the exatecan-derivative drug-linker via a thioether bond (conjugate, chains of the INN, looked up)
VH: QVQLVQSGAEVKKPGASVKVSCKASGYTFTTAGMQWVRQAPGQGLEWMGWINTHSGVPKYAEDFKGRVTISADTSTSTAYLQLSSLKSEDTAVYYCARSGFGSSYWYFDVWGQGTLVTVSS
VL: DIQMTQSPSSLSASVGDRVTITCKASQDVSTAVAWYQQKPGKAPKLLIYSASYRYTGVPSRFSGSGSGTDFTLTISSLQPEDFAVYYCQQHYITPLTFGQGTKLEIK
modifications: exatecan-derivative drug-linker
As for B1, the “Cell proliferation inhibitory effect upon SLFN11 knockdown” value in assay [1] and in assay [2] was “attenuated by SLFN11 knockdown” throughout. Moreover, the IC50 in assay [1] (NCI-H1781 cells, Non-targeting Control Pool, 72 hours, ATPlite, read-out: IC50 (nM) Non-targeting Control Pool) is 8 nM; in assay [1] (NCI-H1781 cells, SLFN11 siRNA knockdown, 72 hours, ATPlite, read-out: IC50 (nM) SLFN11 siRNA) it was greater than 100 nM; in assay [2] (FaDu cells, Non-targeting Control Pool, 72 hours, ATPlite, read-out: IC50 (nM) Non-targeting Control Pool), 42.6 nM; in assay [2] (FaDu cells, SLFN11 siRNA knockdown, 72 hours, ATPlite, read-out: IC50 (nM) SLFN11 siRNA), greater than 100 nM; in assay [3] (MDA-MB-468 cells, Non-targeting Control Pool, 72 hours, ATPlite, read-out: IC50 (nM) Non-targeting Control Pool), greater than 100 nM; in assay [3] (MDA-MB-468 cells, SLFN11 siRNA knockdown, 72 hours, ATPlite, read-out: IC50 (nM) SLFN11 siRNA), greater than 100 nM. Further, the results for the “Fold change (SLFN11/Non-targeting Control)” value in assay [1] (NCI-H1781 cells) and in assay [2] (FaDu cells) were greater than 12.5 and greater than 2.3, respectively.

For the origin of these results see patent US12312641B2, “Sensitivity marker for antibody-drug conjugate” (priority 2018, dated 2025).
